One assay deals with DNA gyrase subunit B (Staphylococcus aureus, UniProt P0A0K8). The assay is described as follows: Binding affinity to full length Staphylococcus aureus GyrB by STD-NMR spectroscopic analysis.
Assay [1] can be described thus: Binding affinity to Escherichia coli ParE by STD-NMR Spectroscopic analysis.
The target in a further assay is DNA gyrase (Staphylococcus aureus, UniProt P0A0K8+P20831). The assay is described as follows: Inhibition of Staphylococcus aureus DNA gyrase ATPase activity using pBR322 DNA as substrate after 30 mins by fluorescence polarization assay. The class given is protein-complex assay. A general note: In fluorescence polarisation assays a small probe gives low polarisation when free and higher when bound to something large.
DNA gyrase, sequence (P0A0K8 whole entry): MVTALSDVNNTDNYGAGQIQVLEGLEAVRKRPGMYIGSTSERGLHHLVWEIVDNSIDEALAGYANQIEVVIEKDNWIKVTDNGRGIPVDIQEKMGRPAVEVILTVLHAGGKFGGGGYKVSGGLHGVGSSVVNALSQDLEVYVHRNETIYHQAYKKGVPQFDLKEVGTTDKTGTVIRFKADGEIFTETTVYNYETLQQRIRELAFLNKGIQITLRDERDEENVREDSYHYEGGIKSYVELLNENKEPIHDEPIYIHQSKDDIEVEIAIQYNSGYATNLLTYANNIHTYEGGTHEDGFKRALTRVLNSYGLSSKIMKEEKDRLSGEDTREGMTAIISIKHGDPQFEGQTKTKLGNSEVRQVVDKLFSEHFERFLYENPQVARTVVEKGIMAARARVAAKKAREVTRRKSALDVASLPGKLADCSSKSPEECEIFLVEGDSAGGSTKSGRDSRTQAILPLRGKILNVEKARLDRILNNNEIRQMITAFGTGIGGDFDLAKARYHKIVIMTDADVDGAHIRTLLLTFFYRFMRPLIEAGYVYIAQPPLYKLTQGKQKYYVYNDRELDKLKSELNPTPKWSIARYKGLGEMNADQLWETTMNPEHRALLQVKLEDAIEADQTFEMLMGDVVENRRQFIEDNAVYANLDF
DNA gyrase, sequence (P20831 whole entry): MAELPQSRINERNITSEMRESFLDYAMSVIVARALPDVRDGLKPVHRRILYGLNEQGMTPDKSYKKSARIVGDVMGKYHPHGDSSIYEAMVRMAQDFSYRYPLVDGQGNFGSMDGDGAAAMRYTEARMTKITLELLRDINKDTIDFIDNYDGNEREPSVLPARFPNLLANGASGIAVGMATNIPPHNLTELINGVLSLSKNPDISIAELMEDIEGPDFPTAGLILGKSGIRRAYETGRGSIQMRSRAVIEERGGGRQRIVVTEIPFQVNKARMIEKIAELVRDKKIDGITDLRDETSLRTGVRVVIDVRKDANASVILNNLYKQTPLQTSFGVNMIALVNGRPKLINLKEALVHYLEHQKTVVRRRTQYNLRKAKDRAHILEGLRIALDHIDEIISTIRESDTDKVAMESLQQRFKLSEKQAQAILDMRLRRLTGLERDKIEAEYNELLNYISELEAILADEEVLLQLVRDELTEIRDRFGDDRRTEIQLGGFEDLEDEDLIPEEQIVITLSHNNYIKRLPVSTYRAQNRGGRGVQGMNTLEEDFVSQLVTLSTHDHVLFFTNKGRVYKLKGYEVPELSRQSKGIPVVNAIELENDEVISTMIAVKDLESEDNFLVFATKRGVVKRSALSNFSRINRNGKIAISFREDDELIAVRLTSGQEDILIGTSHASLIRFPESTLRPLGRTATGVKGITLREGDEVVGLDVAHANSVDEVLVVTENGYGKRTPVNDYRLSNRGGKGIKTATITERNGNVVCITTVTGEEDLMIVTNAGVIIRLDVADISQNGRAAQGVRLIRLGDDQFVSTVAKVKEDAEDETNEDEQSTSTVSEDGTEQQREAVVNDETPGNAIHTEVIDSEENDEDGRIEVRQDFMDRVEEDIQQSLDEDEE

DNA gyrase subunit B, sequence (P0A0K8 whole entry): as the sequence (P0A0K8 whole entry) above

Take `Cc1cc(O)[nH]c2nnc(-c3ccccc3)c1-2`: the half-maximal inhibitory concentration (IC50) at DNA gyrase subunit B is 840 µM; in assay [1] it was “Not Active”.

For `Cc1n[nH]c2c1C(c1ccccc1F)CC(=O)N2` (configuration not stated), the IC50 at DNA gyrase subunit B is 840 µM; in assay [1] it was “Not Active”.

`Nc1nc(O)cc(-c2ccccc2)n1`: the IC50 at DNA gyrase subunit B was 50 µM; in assay [1], “Not Active”.

Turning to `O=c1ccc2c(-c3cnc(-c4cccnc4)s3)n[nH]c2[nH]1`, the IC50 turned out to be 50 µM at DNA gyrase subunit B and 0.265 µM against DNA gyrase.

In the case of `Cc1cc(=O)[nH]c2[nH]nc(-c3cnc(-c4cccnc4)s3)c12`, the IC50 at DNA gyrase subunit B amounted to 50 µM; against DNA gyrase it was 3.25 µM.

As to `CCCC(=O)Nc1sccc1C(N)=O`, the IC50 (at DNA gyrase subunit B; in assay [1] (read-out: IC50)) was 50 µM each time.

`O=c1cc(-c2ccccc2)c2c(-c3cnc(-c4cccnc4)s3)n[nH]c2[nH]1`: the IC50 on DNA gyrase subunit B came to 50 µM; on DNA gyrase, 1.32 µM.

With `O=C1Nc2ccccc2/C1=C\c1cccnc1`, the IC50 came out at 840 µM at DNA gyrase subunit B and 50 µM in assay [1] (read-out: IC50).

With `O=c1[nH]cnc2scc(-c3cccs3)c12`, on DNA gyrase subunit B, the IC50 worked out at 50 µM.

By IC50 is commonly meant the midpoint of a concentration-inhibition curve.

For the origin of these results see ChEMBL document CHEMBL3758166, “Fragment-based discovery of DNA gyrase inhibitors targeting the ATPase subunit of GyrB” (Bioorg Med Chem Lett, 2016).
